Measurements: ChEMBL document CHEMBL1201862, “PubChem BioAssay data set” (2004)
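Grown in 96-well plates, cells were treated for 48 hours with each compound at five concentrations. Insufficient inhibition: endpoint recorded as highest concentration tested. Abbreviation: GI50, concentration required for 50% inhibition of growth.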 Activity calls are given as the source filed them. Cut-off read from the data, not from the text of the source: active = GI50 up to about 1.1 µM and inactive = higher.

Tests used:
Assay in all cases: inhibition of tumour cell growth, NCI panel, 48 h
U-251 = system: U-251
OVCAR-8 = system: OVCAR-8
UACC-62 = system: UACC-62
SF-295 = system: SF-295
TK-10 = system: TK-10
LOX IMVI = system: LOX IMVI
RXF 393 = system: RXF 393
MCF7 = system: MCF7
786-0 = system: 786-0
K562 = system: K562
NCI-H23 = system: NCI-H23
HOP-62 = system: HOP-62
MOLT-4 = system: MOLT-4
DU-145 = system: DU-145
Malme-3M = system: Malme-3M
SN12C = system: SN12C
HCT-15 = system: HCT-15
SK-OV-3 = system: SK-OV-3
NCI/ADR-RES = system: NCI/ADR-RES
COLO 205 = system: COLO 205

| SMILES | GI50 (U-251) | GI50 (OVCAR-8) | GI50 (UACC-62) | GI50 (SF-295) | GI50 (TK-10) | GI50 (LOX IMVI) | GI50 (RXF 393) | GI50 (MCF7) | GI50 (786-0) | GI50 (K562) | GI50 (NCI-H23) | GI50 (HOP-62) | GI50 (MOLT-4) | GI50 (DU-145) | GI50 (Malme-3M) | GI50 (SN12C) | GI50 (HCT-15) | GI50 (SK-OV-3) | GI50 (NCI/ADR-RES) | GI50 (COLO 205) |
| --- | --- | --- | --- | --- | --- | --- | --- | --- | --- | --- | --- | --- | --- | --- | --- | --- | --- | --- | --- | --- |
| COC(=O)c1ccccc1/C=C1\Cc2cc(C)cc(C)c2C1=O | > 100 µM (inactive) | > 100 µM (inactive) | 53.5 µM (inactive) | > 100 µM (inactive) | > 100 µM (inactive) | > 100 µM (inactive) | > 100 µM (inactive) | > 100 µM (inactive) | 57.4 µM (inactive) | > 100 µM (inactive) | > 100 µM (inactive) | 37.2 µM (inactive) | > 100 µM (inactive) | > 100 µM (inactive) | > 100 µM (inactive) | > 100 µM (inactive) | > 100 µM |  |  |  |
| Cc1cc(S(=O)(=O)O)c(NC(=O)c2oc3cc(O)ccc3c(=O)c2C)cc1Cl | > 100 µM (inactive) | > 100 µM (inactive) | > 100 µM (inactive) | > 100 µM (inactive) | > 100 µM (inactive) | > 100 µM (inactive) | > 100 µM (inactive) | > 100 µM (inactive) | > 100 µM (inactive) | > 100 µM (inactive) | > 100 µM (inactive) | > 100 µM (inactive) | > 100 µM (inactive) |  | > 100 µM (inactive) | > 100 µM (inactive) | > 100 µM | > 100 µM (inactive) | > 100 µM (inactive) |  |
| C[C@]12CC[C@H]3[C@@H](CC[C@]4(O)C[C@@H](O)CC[C@]34C=O)[C@@]1(O)CC[C@@H]2C1=CC(=O)OC1 [STROPHANTHIDIN] | 0.698 µM (active) | 0.498 µM (active) | 1.52 µM (inactive) | 0.457 µM (active) | 0.465 µM (active) | 0.453 µM (active) | 0.274 µM (active) |  | 0.321 µM (active) | 0.605 µM (active) | 0.265 µM (active) | 0.159 µM (active) | 0.112 µM (active) | 0.284 µM (active) | 0.435 µM (active) | 0.418 µM (active) | 0.413 µM | 0.568 µM (active) | 0.403 µM (active) | 1.36 µM (inactive) |
| COc1ccc(/C(Cl)=C(\C=O)c2ccc(Br)cc2)cc1OC | 32.8 µM (inactive) | 31.9 µM (inactive) | 33.7 µM (inactive) | 19.8 µM (inactive) | > 92.3 µM (inactive) | 18.3 µM (inactive) | 20.7 µM (inactive) |  | 27.7 µM (inactive) | > 61 µM (inactive) | 64.7 µM (inactive) | 34.8 µM (inactive) | 4.27 µM (inactive) |  | 47.8 µM (inactive) | > 100 µM (inactive) | 25.1 µM | > 100 µM (inactive) |  | > 100 µM (inactive) |
| CC(=O)Nc1ccc(C(=O)NN2C(=O)C(Cl)C2c2ccc([N+](=O)[O-])cc2)cc1 (stereo unspecified) | > 100 µM (inactive) | > 100 µM (inactive) | > 100 µM (inactive) | > 100 µM (inactive) | > 100 µM (inactive) | > 100 µM (inactive) | > 100 µM (inactive) |  | > 100 µM (inactive) | > 100 µM (inactive) | > 100 µM (inactive) | > 100 µM (inactive) | > 100 µM (inactive) |  | > 100 µM (inactive) | > 100 µM (inactive) | > 100 µM | > 100 µM (inactive) |  | > 100 µM (inactive) |
| Nc1ccc(C2=Nc3ccccc3SC(c3ccccc3O)C2)cc1 (stereo unspecified) | 45.5 µM (inactive) | 42.1 µM (inactive) | 38.8 µM (inactive) | 38 µM (inactive) | > 100 µM (inactive) | 30.7 µM (inactive) | 24.9 µM (inactive) |  | 28.8 µM (inactive) | 15.3 µM (inactive) | 30.5 µM (inactive) | 64 µM (inactive) | 19.8 µM (inactive) |  | > 100 µM (inactive) | 45.5 µM (inactive) | 27.3 µM | > 100 µM (inactive) |  | 45.1 µM (inactive) |
| CCOC(=O)C1=C(O)C(=O)c2cc(OC)ccc2C1=O | > 100 µM (inactive) | > 100 µM (inactive) | > 100 µM (inactive) | 84.9 µM (inactive) | > 100 µM (inactive) | 55.2 µM (inactive) | > 100 µM (inactive) |  | > 100 µM (inactive) | > 100 µM (inactive) | 31.8 µM (inactive) | > 100 µM (inactive) | > 100 µM (inactive) |  | > 100 µM (inactive) | > 100 µM (inactive) | > 100 µM | > 100 µM (inactive) |  | > 100 µM (inactive) |
| O=C1OC(c2ccccc2)=N/C1=C\c1ccc(Br)cc1 | > 100 µM (inactive) | > 100 µM (inactive) | > 100 µM (inactive) | > 100 µM (inactive) | > 100 µM (inactive) | > 100 µM (inactive) | > 100 µM (inactive) | > 100 µM (inactive) | > 100 µM (inactive) | > 100 µM (inactive) | > 100 µM (inactive) | > 100 µM (inactive) | 94 µM (inactive) | > 100 µM (inactive) | 74.8 µM (inactive) | > 100 µM (inactive) | > 100 µM | > 100 µM (inactive) |  | > 100 µM (inactive) |
| C[N+](C)(C)CC1CCCC1=O (stereo unspecified) | 13.2 µM (inactive) | 2.1 µM (inactive) | 1.6 µM (inactive) | 19.1 µM (inactive) | 2.62 µM (inactive) | 0.832 µM (active) | 2.27 µM (inactive) |  | 2.34 µM (inactive) | 0.377 µM (active) | 4.45 µM (inactive) | 29.8 µM (inactive) | 0.249 µM (active) | 0.0296 µM (active) | 0.789 µM (active) | 2.64 µM (inactive) | 2.18 µM | 16.5 µM (inactive) | 1.94 µM (inactive) | 1.2 µM (inactive) |
| COc1cc2c(cc1OC)C1C=NC(C2)c2cc(OC)c(OC)cc21 (stereo unspecified) | > 100 µM (inactive) | 96.2 µM (inactive) | > 100 µM (inactive) | > 100 µM (inactive) | > 100 µM (inactive) | > 100 µM (inactive) |  | 60.1 µM (inactive) | > 100 µM (inactive) | 54.2 µM (inactive) |  | > 100 µM (inactive) | 40.5 µM (inactive) | > 100 µM (inactive) |  | > 100 µM (inactive) | 85.9 µM | > 100 µM (inactive) | > 100 µM (inactive) | 89.7 µM (inactive) |
| Cc1cc(C)nc(NS(=O)(=O)c2ccc(Nc3c4ccccc4nc4c(C(=O)N5CCN(CCO)CC5)cccc34)cc2)n1 | > 100 µM (inactive) | > 100 µM (inactive) | > 100 µM (inactive) | > 100 µM (inactive) | > 100 µM (inactive) | > 100 µM (inactive) | > 100 µM (inactive) |  | > 100 µM (inactive) | > 100 µM (inactive) | > 100 µM (inactive) | > 100 µM (inactive) | > 100 µM (inactive) |  | > 100 µM (inactive) | > 100 µM (inactive) | > 100 µM | > 100 µM (inactive) |  | > 100 µM (inactive) |
| O=C1c2ccsc2C(=O)c2sc(CO)cc21 | 0.156 µM (active) | 0.113 µM (active) | 0.0553 µM (active) | 0.628 µM (active) | 5.93 µM (inactive) | < 0.0176 µM (active) | 1.09 µM (active) |  | 0.385 µM (active) | 0.237 µM (active) | 0.0322 µM (active) | 0.184 µM (active) | 0.524 µM (active) |  | 0.61 µM (active) | 0.0386 µM (active) | 0.0421 µM | 1.11 µM (active) | 0.0845 µM (active) | 0.817 µM (active) |
| CN(C)CC/C(=N\Nc1c(F)c(F)c(F)c(F)c1F)c1ccccc1 | 42.4 µM (inactive) | 93.3 µM (inactive) | 34.5 µM (inactive) | 38.5 µM (inactive) | 62.7 µM (inactive) | 32.7 µM (inactive) | 22 µM (inactive) |  | 82.4 µM (inactive) | 20.4 µM (inactive) | 77.1 µM (inactive) | > 10 µM (inactive) | 19.2 µM (inactive) |  | 36.9 µM (inactive) | 37.8 µM (inactive) | 35.3 µM | 3.32 µM (inactive) |  | > 100 µM (inactive) |
| N#CC(C#N)=c1c2ccccc2c(=C(C#N)C#N)c2ccccc12 | 19.4 µM (inactive) | 20.1 µM (inactive) | 13.2 µM (inactive) |  |  | 17.8 µM (inactive) |  | 5.61 µM (inactive) | 14.9 µM (inactive) | 19.9 µM (inactive) | 19.6 µM (inactive) | 19.4 µM (inactive) | 7.76 µM (inactive) |  |  | 16.6 µM (inactive) | 43.3 µM | 25.1 µM (inactive) | 25.6 µM (inactive) | 21.2 µM (inactive) |
| CC1CC(N2CCOCC2)=Nc2ccccc2N1C (stereo unspecified) | > 100 µM (inactive) | > 100 µM (inactive) | > 100 µM (inactive) | > 100 µM (inactive) | > 100 µM (inactive) |  | > 100 µM (inactive) |  | > 100 µM (inactive) | > 100 µM (inactive) | 80 µM (inactive) | > 100 µM (inactive) | 95.5 µM (inactive) | > 100 µM (inactive) | 56.4 µM (inactive) | > 100 µM (inactive) | > 100 µM | > 100 µM (inactive) | > 100 µM (inactive) | > 100 µM (inactive) |
| CC(=O)c1ccc2c(c1)N(CCCN1CCN(CCO)CC1)c1ccccc1C2 | 15.8 µM (inactive) | 16.7 µM (inactive) | 10.8 µM (inactive) | 17.1 µM (inactive) | 14.7 µM (inactive) | 15.2 µM (inactive) | 15.4 µM (inactive) |  | 16.9 µM (inactive) | 13.5 µM (inactive) | 15.8 µM (inactive) | 15.3 µM (inactive) | 18.4 µM (inactive) | 14.3 µM (inactive) | 18.2 µM (inactive) | 16.9 µM (inactive) | 14.4 µM | 16.3 µM (inactive) | 13.9 µM (inactive) | 15.1 µM (inactive) |
